Values of other authors, collected in patent US20250255927A1, “COMPOSITIONS AND METHODS FOR ALLEVIATING ADVERSE EFFECTS FROM RESPONSIBLE ALCOHOL CONSUMPTION” (Cheers Health, Inc., priority 2023, published 2025).

Legend:
pain = conditions: 1 g of salicin
[1] = rat models

| SMILES | amount of aspirin with comparable pain relief effect (pain) | time to reach the brain without any metabolic change [1] |
| --- | --- | --- |
| OCc1ccccc1O[C@@H]1O[C@H](CO)[C@@H](O)[C@H](O)[C@H]1O [salicin] | ~620 mg |  |
| CCNC(=O)CC[C@H](N)C(=O)O [L-Theanine] |  | ≤ 30 min |
